Results as given in patent US20100120700A1, “METHODS AND COMPOSITIONS FOR TREATING CERVICAL CANCER” (priority 2000, published 2010).
Several values for one entry are separate records, joined by “and”; a condition that tells them apart may be missing. Identical values can stand only once.

Key:
Assay in all cases: G assay PDZ-PL binding
[1] = molecular target: T1, HTRA 3 domain 1 (Homo sapiens, UniProt P83110); settings: peptide 10 uM, protein 5
T1 construct: made in house; host or cells: E. coli (DH5alpha or BL-21)
T1 sequence (P83110 with tags, fused parts or gaps): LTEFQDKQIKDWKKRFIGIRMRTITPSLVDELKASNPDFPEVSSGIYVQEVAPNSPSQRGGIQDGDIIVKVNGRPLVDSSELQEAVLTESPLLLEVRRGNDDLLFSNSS
Procedure: (§1) (1) A PDZ-domain polypeptide is bound to a surface, e.g. a protein binding surface. In a preferred embodiment, a GST/PDZ fusion protein containing one or more PDZ domains is bound to a polystyrene 96-well plate. […] In one embodiment, the GST/PDZ fusion protein is bound via an anti-GST antibody that is coated onto the 96-well plate. Adequate binding to the plate can be achieved when: • a. 100 uL per well of 5 ug/mL goat anti-GST polyclonal antibody (Pierce) in PBS is added to a polystyrene 96-well plate (e.g., Num Polysorb) at 4° C. for 12 hours. • b. The plate is blocked by addition of 200 uL per well of PBS/BSA for 2 hours at 4° C. • c. The plate is washed 3 times with PBS. • d. 50 uL per well of 5 ug/mL GST/PDZ fusion protein) or, as a negative control, GST polypeptide alone (i.e. not a fusion protein) in PBS/BSA is added to the plate for 2 hours at 4° C. • e. The plate is again washed 3 times with PBS. […]
(§2) (3) The binding of the biotinylated peptide to the GST/PDZ fusion protein surface can be detected using a variety of methods and detectors known to one of skill in the art. In one embodiment, 100 uL per well of 0.5 ug/mL streptavidin-horse radish peroxidase (HRP) conjugate dissolved in BSA/PBS is added and allowed to react for 20 minutes at 4° C. The plate is then washed 5 times with 50 mM Tris pH 8.0 containing 0.2% Tween 20, and developed by addition of 100 uL per well of HRP-substrate solution (TMB, Dako) for 20 minutes at room temperature (RT). The reaction of the HRP and its substrate is terminated by addition of 100 uL per well of 1M sulfuric acid, and the absorbance of each well of the plate is read at 450 nm.
(§3) (4) Specific binding of a PL peptide and a PDZ domain polypeptide is determined by comparing the signal from the well(s) in which the PL peptide and PDZ domain polypeptide are combined, with the background signal(s). The background signal is the signal found in the negative control(s). Typically a specific or selective reaction will be at least twice background signal, more typically more than 5 times background, and most typically 10 or more times the background signal. In addition, a statistically significant reaction will involve multiple measurements of the reaction with the signal and the background differing by at least two standard errors, more typically four standard errors, and most typically six or more standard errors. Correspondingly, a statistical test (e.g. a T-test) comparing repeated measurements of the signal with-repeated measurements of the background will result in a p-value<0.05, more typically a p-value<0.01, and most typically a p-value<0.001 or less. As noted, in an embodiment of the “G” assay, the signal from binding of a given PL peptide to immobilized (surface bound) GST polypeptide alone is one suitable negative control (sometimes referred to as “B 1”). Because all measurement are done in multiples (i.e. at least duplicate) the arithmetic mean (or, equivalently, average.) of several measurements is used in determining the binding, and the standard error of the mean is used in determining the probable error in the measurement of the binding. The standard error of the mean of N measurements equals the square root of the following: the sum of the squares of the difference between each measurement and the mean, divided by the product of (N) and (N−1). Thus, in one embodiment, specific binding of the PDZ protein to the platebound peptide is determined by comparing the mean signal (“mean S”) and standard error of the signal (“SE”) for a particular PL-PDZ combination with the mean B1.
(§4) For convenience, the assay conditions described in this section are referred to as the “G’ assay” and the “G” assay,” with the specific conditions described in the preceding section on G assays being referred to as the “G° assay.” The “G′ assay” is identical to the “G° assay” except at step (2) the peptide concentration is 10 uM instead of 20 uM. […]

[2] = molecular target: T2, X-11 beta domain 2 (Homo sapiens, UniProt Q99767); settings: peptide 10 uM, protein 5
T2 construct: made in house; host or cells: E. coli (DH5alpha or BL-21)
T2 sequence (Q99767 with tags, fused parts or gaps): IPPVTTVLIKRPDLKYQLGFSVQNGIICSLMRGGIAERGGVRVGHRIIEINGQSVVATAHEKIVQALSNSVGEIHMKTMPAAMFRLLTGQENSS
Procedure: as §1, §2, §3, §4

[3] = molecular target: T3, KIAA1634 domain 1 (Homo sapiens, UniProt Q5TCQ9); settings: peptide 10 uM, protein 5
T3 construct: made in house; host or cells: E. coli (DH5alpha, BL21 or JM109)
T3 sequence (Q5TCQ9 401-502): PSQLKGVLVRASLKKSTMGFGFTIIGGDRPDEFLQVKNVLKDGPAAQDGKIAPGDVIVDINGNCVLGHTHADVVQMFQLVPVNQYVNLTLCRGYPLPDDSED
Procedure: as §1, §2, §3, §4

[4] = molecular target: T4, Magi2 domain 3 (Homo sapiens, UniProt Q86UL8); settings: peptide 10 uM, protein 5
T4 construct: made in house; host or cells: E. coli (DH5alpha or BL-21)
T4 sequence (Q86UL8 with tags, fused parts or gaps): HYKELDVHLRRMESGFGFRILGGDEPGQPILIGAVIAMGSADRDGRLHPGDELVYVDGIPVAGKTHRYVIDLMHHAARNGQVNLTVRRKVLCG
Procedure: as §1, §2, §3, §4

[5] = molecular target: T5, LIM Mystique domain 1 (Homo sapiens, UniProt Q96JY6); settings: peptide 10 uM, protein 5
T5 construct: made in house; host or cells: E. coli (DH5alpha, BL21 or JM109), vector pGEX-3X
T5 sequence (Q96JY6 1-91): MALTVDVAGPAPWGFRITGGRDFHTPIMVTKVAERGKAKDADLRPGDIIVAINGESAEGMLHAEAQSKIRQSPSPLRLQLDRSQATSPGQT
Procedure: as §1, §2, §3, §4

[6] = molecular target: T6, NeDLG domain 2 (Homo sapiens, UniProt Q92796); settings: vs GST only well, peptide 10 uM, protein 5
T6 construct: made in house; host or cells: E. coli (DH5alpha, BL21 or JM109)
T6 sequence (Q92796 with tags, fused parts or gaps): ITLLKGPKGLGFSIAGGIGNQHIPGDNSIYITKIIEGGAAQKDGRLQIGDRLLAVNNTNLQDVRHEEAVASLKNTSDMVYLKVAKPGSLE
Procedure: as §1, §2, §3, §4

[7] = molecular target: T7, PDZK1 domain 2, 3, 4 (Homo sapiens, UniProt Q5T2W1); settings: peptide 10 uM, protein 5
T7 construct: When more than one PDZ domain was cloned, the DNA portion cloned represents the PDZ domains and the cDNA portion located between individual domains; made in house; host or cells: E. coli (DH5alpha, BL21 or JM109)
Procedure: as §1, §2, §3, §4

[8] = molecular target: T8, TIP 43 #264.1 domain 1 (Homo sapiens, UniProt Q13884); settings: vs GST only well, peptide 10 uM, protein 5
T8 construct: made in house; host or cells: E. coli (DH5alpha, BL21 or JM109)
T8 sequence (Q13884 106-201): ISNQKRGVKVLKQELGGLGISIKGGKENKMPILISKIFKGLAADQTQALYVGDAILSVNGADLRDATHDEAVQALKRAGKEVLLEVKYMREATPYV
Procedure: as §1, §2, §3, §4

[9] = molecular target: T9, EBP50 #167.2 domain 1 (Homo sapiens, UniProt O14745); settings: peptide 10 uM, protein 5
T9 construct: made in house; host or cells: E. coli (DH5alpha or BL-21)
T9 sequence (O14745 with tags, fused parts or gaps): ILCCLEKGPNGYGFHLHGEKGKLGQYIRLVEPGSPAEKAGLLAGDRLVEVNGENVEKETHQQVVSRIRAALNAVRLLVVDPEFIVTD
Procedure: as §1, §2, §3, §4

[10] = molecular target: T10, KIAA1634 domain 5 (Homo sapiens, UniProt Q5TCQ9); settings: peptide 10 uM, protein 5
T10 construct: made in house; host or cells: E. coli (DH5alpha or BL-21)
T10 sequence (Q5TCQ9 1040-1137 isoform Q5TCQ9-2): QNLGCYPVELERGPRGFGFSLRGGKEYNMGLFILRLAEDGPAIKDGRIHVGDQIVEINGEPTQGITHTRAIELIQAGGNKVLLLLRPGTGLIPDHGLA
Procedure: as §1, §2, §3, §4

[11] = molecular target: T11, MINT1 domain 1, 2 (Homo sapiens, UniProt Q02410); settings: peptide 10 uM, protein 5
T11 construct: When more than one PDZ domain was cloned, the DNA portion cloned represents the PDZ domains and the cDNA portion located between individual domains; made in house; host or cells: E. coli (DH5alpha, BL21 or JM109), vector pGEX-3X
T11 sequence (Q02410 651-828 limits assumed): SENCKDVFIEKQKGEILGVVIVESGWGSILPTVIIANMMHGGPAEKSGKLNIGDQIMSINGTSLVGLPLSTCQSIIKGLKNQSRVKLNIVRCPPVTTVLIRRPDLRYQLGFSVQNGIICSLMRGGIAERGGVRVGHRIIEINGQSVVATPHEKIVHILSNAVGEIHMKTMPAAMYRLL
Procedure: as §1, §2, §3, §4

[12] = molecular target: T12, Shroom domain 1 (Homo sapiens, UniProt Q8TF72); settings: peptide 10 uM, protein 5
T12 construct: made in house; host or cells: E. coli (DH5alpha or BL-21)
T12 sequence (Q8TF72 26-116): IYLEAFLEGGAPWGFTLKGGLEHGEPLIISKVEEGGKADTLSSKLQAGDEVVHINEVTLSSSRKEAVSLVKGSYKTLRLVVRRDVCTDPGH
Procedure: as §1, §2, §3, §4

How did the “Ave OD” value ([1]; A450 nm) turn out when “20 mer peptide corresponding to the C-terminus of HPV16 E6 (PDZ ligand), biotinylated in binding assays; ends SSRTRRETQL (SEQ ID NO: 13) [HPV E6 #16]” was run?
The value was 0.4135.

And the “OD S/N” value ([1]; vs GST only well)?
The value was 1.34.

What about the “Ave OD” value ([2]; A450 nm) of the same substance?
The value was 0.4315 and 0.4265.

And the “OD S/N” value ([2]; vs GST only well)?
The value was 2.95 and 1.78.

And the “Ave OD” value ([3]; A450 nm)?
The value was 3.465 and 3.336.

What about the “OD S/N” value ([3]; vs GST only well) of the same substance?
Its value is 19.04 and 19.45.

What about the “Ave OD” value ([4]; A450 nm) of the same substance?
The value was 0.4165 and 0.359.

What about the “OD S/N” value ([4]; vs GST only well) of the same substance?
Its value is 1.98 and 1.65.

What about the “Ave OD” value ([5]; A450 nm) of the same substance?
Its value is 0.5955.

And the “OD S/N” value ([5]; vs GST only well)?
Its value is 2.84.

And the “OD S/N” value [6]?
Its value is 2.20 and 3.99.

What about the “Ave OD” value ([7]; A450 nm) of the same substance?
The value was 0.518.

What about the “OD S/N” value ([7]; vs GST only well) of the same substance?
The value was 2.64.

And the “OD S/N” value [8]?
Its value is 8.50 and 8.76.

What about the “Ave OD” value ([9]; A450 nm) of the same substance?
Its value is 0.3805 and 0.3555.

What about the “OD S/N” value ([9]; vs GST only well) of the same substance?
The value was 1.94 and 2.28.

And the “Ave OD” value ([10]; A450 nm)?
The value was 0.4025.

What about the “OD S/N” value ([10]; vs GST only well) of the same substance?
Its value is 2.07.

And the “Ave OD” value ([11]; A450 nm)?
Its value is 0.3655 and 0.6075.

What about the “OD S/N” value ([11]; vs GST only well) of the same substance?
Its value is 1.42 and 2.11.

And the “Ave OD” value ([12]; A450 nm)?
The value was 0.361.

And the “OD S/N” value ([12]; vs GST only well)?
The value was 3.25.
